T/C data for ten compounds are collected here from PubChem BioAssay AID328 (DTP/NCI, 2004).

The test system of the assay is BDF1 mice, P388 leukemia ip, median survival T/C. The assay can be described thus: NCI In Vivo Anticancer Drug Screen. Data for tumor model P388 Leukemia (intraperitoneal) in B6D2F1 (BDF1) mice. As to conditions: endpoint: median survival time, higher = longer survival. The essentials: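 Vehicle-dosed animals serve as the reference; survival of compound-dosed, tumour-implanted mice is divided by it.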

[1] abbreviates: dose: 100.0 mg/kg/injection, schedule: Q01DX009 (ip), vehicle: saline with Tween-80.
The mark [2] stands for this setting: dose: 100.0 mg/kg/injection, schedule: Q04DX003 (ip), vehicle: saline.
[3] abbreviates: dose: 200.0 mg/kg/injection, schedule: Q01DX009 (ip), vehicle: saline with Tween-80.
The mark [4] stands for this setting: dose: 200.0 mg/kg/injection, schedule: Q04DX003 (ip), vehicle: saline.
Where [5] appears, read: dose: 400.0 mg/kg/injection, schedule: Q04DX003 (ip), vehicle: saline.
Where [6] appears, read: dose: 200.0 mg/kg/injection, schedule: Q01DX009 (ip), vehicle: Klucel (hydroxypropylcellulose) (HPC).
Setting [7] is: dose: 25.0 mg/kg/injection, schedule: Q04DX003 (ip), vehicle: saline with Tween-80.
Setting [8] is: dose: 50.0 mg/kg/injection, schedule: Q04DX003 (ip), vehicle: saline with Tween-80.
Setting [9] is: dose: 50.0 mg/kg/injection, schedule: Q04DX003 (ip), vehicle: saline.
Setting [10] is: dose: 100.0 mg/kg/injection, schedule: Q04DX003 (ip), vehicle: saline with Tween-80.
Where [11] appears, read: dose: 50.0 mg/kg/injection, schedule: Q01DX009 (ip), vehicle: saline with Tween-80.

Where “and” joins values, the source holds several entries; their conditions need not be identical. Equal values may be shown once. Inconclusive results and toxic doses are left out.

Regarding `COC1=C(N)C(=O)c2ncccc2C1=O`, the T/C (dose: 4.0 mg/kg/injection, schedule: Q01DX010 (ip), vehicle: acetone) was 113 % of control and the T/C (dose: 8.0 mg/kg/injection, schedule: Q01DX010 (ip), vehicle: acetone) was 109 % of control.
Turning to `CCSCCSCC`, the T/C reads like this: under setting [1], 107 % of control; under setting [2], 120 % of control; under setting [3], 103 % of control; under setting [4], 115 % of control; under setting [5], 120 % of control.
As to `O=C1CCC2N1CCC1CCCCN12` (stereo not given), the T/C (dose: 6.25 mg/kg/injection, schedule: Q01DX009 (ip), vehicle: water) is 98 % of control; the T/C (dose: 12.5 mg/kg/injection, schedule: Q01DX009 (ip), vehicle: water) is 100 % of control; the T/C (dose: 25.0 mg/kg/injection, schedule: Q01DX009 (ip), vehicle: water) is 86 % of control; the T/C (dose: 25.0 mg/kg/injection, schedule: Q04DX003 (ip), vehicle: water) is 107 % of control; the T/C (dose: 50.0 mg/kg/injection, schedule: Q01DX009 (ip), vehicle: water) was 94 % of control; the T/C (dose: 50.0 mg/kg/injection, schedule: Q04DX003 (ip), vehicle: water) is 118 % of control. The T/C reads like this: (dose: 100.0 mg/kg/injection, schedule: Q01DX009 (ip), vehicle: water) 91 % of control; (dose: 100.0 mg/kg/injection, schedule: Q04DX003 (ip), vehicle: water) 107 % of control; (dose: 200.0 mg/kg/injection, schedule: Q04DX003 (ip), vehicle: water) 109 % of control.
Take `O=S(=O)(c1cccc(C(F)(F)F)c1)N1c2ccccc2-n2cccc2C1c1cccnc1` (stereo not given): the T/C by setting is: (dose: 50.0 mg/kg/injection, schedule: Q01DX009 (ip), vehicle: Klucel (hydroxypropylcellulose) (HPC)) 94 % of control; (dose: 100.0 mg/kg/injection, schedule: Q01DX009 (ip), vehicle: Klucel (hydroxypropylcellulose) (HPC)) 103 % of control; under setting [6], 96 % of control.
For `CC1CCCC(c2ccccc2)C1` (stereo not given), the T/C (dose: 50.0 mg/kg/injection, schedule: Q01DX001 (ip), vehicle: saline with Tween-80) was 109 % of control; the T/C (dose: 100.0 mg/kg/injection, schedule: Q01DX001 (ip), vehicle: saline with Tween-80) was 109 % of control; the T/C (dose: 200.0 mg/kg/injection, schedule: Q01DX001 (ip), vehicle: saline with Tween-80) was 109 % of control.
`O=C1N(Cl)C(=O)C(c2ccc(Cl)cc2)(c2ccc(Cl)cc2)N1Cl`: the T/C is, setting by setting: (dose: 22.0 mg/kg/injection, schedule: Q04DX003 (ip), vehicle: saline with Tween-80) 115 % of control; (dose: 22.0 mg/kg/injection, schedule: Q04DX003 (ip), vehicle: saline) 91 % of control; (dose: 25.0 mg/kg/injection, schedule: Q02DX005 (ip), vehicle: Klucel (hydroxypropylcellulose) (HPC)) 110 % of control; (dose: 25.0 mg/kg/injection, schedule: Q04DX003 (ip), vehicle: Klucel (hydroxypropylcellulose) (HPC)) 105 % of control; under setting [7], 104 % of control; (dose: 30.0 mg/kg/injection, schedule: Q04DX003 (ip), vehicle: Klucel (hydroxypropylcellulose) (HPC)) 100 % of control. The T/C was 123 % of control (dose: 33.0 mg/kg/injection, schedule: Q04DX003 (ip), vehicle: saline with Tween-80); 116 % of control (dose: 33.0 mg/kg/injection, schedule: Q04DX003 (ip), vehicle: saline); 120 % of control (dose: 38.5 mg/kg/injection, schedule: Q04DX003 (ip), vehicle: saline with Tween-80); 124 % of control (dose: 50.0 mg/kg/injection, schedule: Q02DX005 (ip), vehicle: Klucel (hydroxypropylcellulose) (HPC)); 96 % of control (dose: 50.0 mg/kg/injection, schedule: Q04DX003 (ip), vehicle: Klucel (hydroxypropylcellulose) (HPC)); 153 % of control under setting [8]. Also, the T/C is, setting by setting: under setting [9], 120 % of control; (dose: 60.0 mg/kg/injection, schedule: Q04DX003 (ip), vehicle: Klucel (hydroxypropylcellulose) (HPC)) 111 % of control; (dose: 75.0 mg/kg/injection, schedule: Q04DX003 (ip), vehicle: saline with Tween-80) 150 % of control; (dose: 75.0 mg/kg/injection, schedule: Q04DX003 (ip), vehicle: saline) 120 % of control; (dose: 100.0 mg/kg/injection, schedule: Q02DX005 (ip), vehicle: Klucel (hydroxypropylcellulose) (HPC)) 151 % of control; (dose: 100.0 mg/kg/injection, schedule: Q04DX003 (ip), vehicle: Klucel (hydroxypropylcellulose) (HPC)) 96 % of control. Also, the T/C runs as follows: (dose: 100.0 mg/kg/injection, schedule: Q04DX003 (ip), vehicle: saline sonified) 160 % of control; under setting [10], 150 % of control and 154 % of control; (dose: 132.0 mg/kg/injection, schedule: Q02DX005 (ip), vehicle: Klucel (hydroxypropylcellulose) (HPC)) 150 % of control; (dose: 132.0 mg/kg/injection, schedule: Q04DX003 (ip), vehicle: saline with Tween-80) 112 % of control and 117 % of control; under setting [6], 156 % of control; (dose: 200.0 mg/kg/injection, schedule: Q02DX005 (ip), vehicle: Klucel (hydroxypropylcellulose) (HPC)) 155 % of control and 171 % of control. The T/C by setting is: (dose: 200.0 mg/kg/injection, schedule: Q04DX003 (ip), vehicle: Klucel (hydroxypropylcellulose) (HPC)) 98 % of control; (dose: 200.0 mg/kg/injection, schedule: Q04DX003 (ip), vehicle: saline sonified) 180 % of control; (dose: 300.0 mg/kg/injection, schedule: Q01DX009 (ip), vehicle: Klucel (hydroxypropylcellulose) (HPC)) 95 % of control; (dose: 300.0 mg/kg/injection, schedule: Q02DX005 (ip), vehicle: Klucel (hydroxypropylcellulose) (HPC)) 152 % of control; (dose: 300.0 mg/kg/injection, schedule: Q04DX003 (ip), vehicle: Klucel (hydroxypropylcellulose) (HPC)) 114 % of control; (dose: 380.0 mg/kg/injection, schedule: Q04DX003 (ip), vehicle: Klucel (hydroxypropylcellulose) (HPC)) 100 % of control. For the same compound, for the setting “dose: 400.0 mg/kg/injection, schedule: Q04DX003 (ip), vehicle: saline sonified”, the T/C is 190 % of control.
With `CCOc1ccc(N2C(=O)CSC2=S)cc1`, the T/C under setting [11] was 104 % of control; the T/C under setting [8] was 110 % of control; the T/C under setting [1] is 100 % of control; the T/C under setting [10] is 100 % of control; the T/C under setting [3] is 95 % of control; the T/C (dose: 200.0 mg/kg/injection, schedule: Q04DX003 (ip), vehicle: saline with Tween-80) is 100 % of control.
As for `CC(=O)OCc1ccc(-n2c(C(F)(F)F)nc3nc(Cl)c(Cl)nc32)o1`, the T/C (dose: 50.0 mg/kg/injection, schedule: Q01DX009 (ip), vehicle: saline) was 100 % of control; the T/C under setting [9] was 108 % of control; the T/C (dose: 100.0 mg/kg/injection, schedule: Q01DX009 (ip), vehicle: saline) was 107 % of control; the T/C under setting [2] is 103 % of control; the T/C under setting [4] is 101 % of control; the T/C under setting [5] was 100 % of control.
As to `CC(C)CC(CC(C)C)NCC(C)OC(=O)c1ccc(N)cc1` (stereo not given), the T/C reads like this: (dose: 6.25 mg/kg/injection, schedule: Q01DX009 (ip), vehicle: saline with Tween-80) 104 % of control; (dose: 6.25 mg/kg/injection, schedule: Q04DX003 (ip), vehicle: saline with Tween-80) 107 % of control; (dose: 12.5 mg/kg/injection, schedule: Q01DX009 (ip), vehicle: saline with Tween-80) 93 % of control; (dose: 12.5 mg/kg/injection, schedule: Q04DX003 (ip), vehicle: saline with Tween-80) 114 % of control; (dose: 25.0 mg/kg/injection, schedule: Q01DX009 (ip), vehicle: saline with Tween-80) 104 % of control; under setting [7], 114 % of control. Further, the T/C under setting [8] was 114 % of control.
In the case of `O=C(O)C1C(C(=O)O)N2C(c3ccccc3)C(C(=O)O)C(C(=O)O)N2C1c1ccccc1` (stereo not given), the T/C is, setting by setting: under setting [11], 90 % of control; under setting [1], 90 % of control; under setting [3], 90 % of control.
